# Experiments:
# advanced breast cancer = conditions: cited from earlier work
# serum testosterone = test: LHRH agonist-induced serum testosterone in the dog; assay type: in vivo; conditions: dogs; for prevention of the rise in serum testosterone during the first days of treatment with the peptide: given per os three times daily together with 50 μg LHRH-A daily (aminoglutethimide group plus hydrocortisone)
# Procedure: Eighteen mongrel dogs weighing between 20-30 kg were randomly divided into three groups. The animals were housed one per cage and fed Purina Dog Chow and tap water ad libitum.
# The animals of group 1 were injected daily (at 0700 h) with 50 μg of the LHRH agonist [D-Trp^6, des-Gly-NH2^10 ]LHRH ethylamide (LHRH-A). In group 2, the animals were also injected daily with 50 μg of LHRH-A and took in addition 200 mg of ketoconazole per os at 0700 h, 1500 h and 2300 h. The animals of group 3 received daily 50 μg of LHRH-A and 125 mg of aminoglutethimide per os at 0700 h, 1500 h, 2300 h plus 10 mg of hydrocortisone twice daily.
# Blood samples were collected at 0700 h, 0900 h, 1100 h and 1500 h one day before treatment and every day during the treatment. Plasma was extracted with diethyl ether and testosterone was separated on LH-20 columns before RIA measurements.
# testosterone levels = conditions: rodents, in combination with chronic administration of Leuprolide; cited from earlier work
# [1] = tested on: MCF7 human breast tumor cells; conditions: inhibitory activity antagonized by estradiol; cited from earlier work
compound,measurement,setting,value
"CC/C(=C(\c1ccccc1)c1ccc(OCCN(C)C)cc1)c1ccccc1 [Tamoxifen, (Z)-2-[4-(1,2-diphenyl-1-butenyl)phenoxy]-N,N-dimethylethanamine]","remission of advanced breast cancer, share of patients treated",advanced breast cancer; Tamoxifen alone,about 30%
same,objective remission of breast cancer,advanced breast cancer; combined use with the LH-RH agonist Buserelin,35%
"CCNC(=O)[C@@H]1CCCN1C(=O)[C@H](CCCNC(=N)N)NC(=O)[C@H](CC(C)C)NC(=O)[C@@H](Cc1c[nH]c2ccccc12)NC(=O)[C@H](Cc1ccc(O)cc1)NC(=O)[C@H](CO)NC(=O)[C@H](Cc1c[nH]c2ccccc12)NC(=O)[C@H](Cc1c[nH]cn1)NC(=O)[C@@H]1CCC(=O)N1 [[D-Trp^6 des-Gly-NH2^10]LHRH ethylamide, [D-Trp^6, des-Gly-NH2^10]LHRH ethylamide]",level of serum testosterone on day 19,"serum testosterone; daily injection of 50 μg, day 19",near-castration levels
same,increase in serum testosterone,"serum testosterone; daily injection of 50 μg, one to six days after start of treatment",approximately 500 % above control
"CCC1(c2ccc(N)cc2)CCC(=O)NC1=O (centres unmarked) [aminoglutethimide, 3-(4-aminophenyl)-3-ethyl-2,6-piperidinedione]",prevention of the rise in serum testosterone during the first days of treatment with the peptide,serum testosterone,almost completely prevented
CC(=O)N1CCN(c2ccc(OCC3COC(Cn4ccnc4)(c4ccc(Cl)cc4Cl)O3)cc2)CC1 (centres unmarked) [ketoconazole],basal and Leuprolide stimulated testosterone levels,testosterone levels,decreased
same,prevention of the rise in serum testosterone during the first days of treatment with the peptide,serum testosterone,almost completely prevented
"CC[C@H](c1cccc(O)c1)[C@@H](CC)c1cccc(O)c1 [meso-3,4-bis(3'-hydroxyphenyl)hexane]",inhibition of MCF7 human breast tumor cells,[1],inhibits

# Reference: patent publication US4760053A, “Combination therapy for selected sex steroid dependent cancers” (priority 1985, dated 1988)
